Assay results reported in publication PMC7093396 (Scientific Reports, 2020).
In brackets after ≈: the same amount, converted by molar mass.

Legend:
B. bacteriovorus HD100 = tested on: T1, B. bacteriovorus HD100; assay: microbe, parasite or virus in culture; parameters: species or system B. bacteriovorus HD100 with E. coli BW25113 prey; Predatory growth on E. coli prey, OD600 reduction, Gompertz-fit MIC by linear regression at PPR 0.02; conditions: Escherichia coli, HD100, 24 h; co-culture with E. coli BW25113 prey, theoretical MIC at PPR 0.02
T1 construct: HD100
Procedure: Two-fold serial dilutions of antibiotics (Table S6) were made along the rows of 96-well plates (BRANDplates pureGrade^TM S, no. 781662) in 100 µL Ca/HEPES buffer (5.94 g/L HEPES free acid, 0.284 g/L calcium chloride 2·H2O, adjusted to pH 7.6 with NaOH), including controls (no antibiotic present). B. bacteriovorus cultures were diluted by a factor of 25 in Ca/HEPES buffer. B. bacteriovorus two-fold serial dilutions were prepared in a new sterile 96-well plate along the column line (using as diluent a suspension of heat-inactivated B. bacteriovorus), including controls (no viable B. bacteriovorus present). Fifty µL of these dilution series were transferred from each well of the latter plate to the corresponding wells of plates with antibiotic dilution series. Subsequently, 50 µL of an E. coli BW25113 overnight culture grown in YPSC broth was added to each plate well. At this point, which corresponds to time zero, the blank was determined by measuring the OD600 of cell suspensions in a plate reader (TECAN Infinite 200 Pro). Final OD600 measurements were carried out after an incubation of 24 hours at 29 °C under shaking conditions (300 rpm, 3 mm throw). The number of E. coli cells was estimated by reading the OD600 of the overnight culture prior to the beginning of the assay. The number of viable B. bacteriovorus cells was estimated by plating in double layer YPSC agar plates as explained elsewhere. Following an incubation time of three days at 29 °C, the number of B. bacteriovorus cells in the initial inoculation culture was estimated by counting plaque forming units (PFU). Enumeration of B. bacteriovorus by plaques count ensures that only viable cells are counted and, in our experience, is preferable over other methods based on microscopy and/or fluorescence. Pictures of plaques were acquired by the aid of a plaque visualization chamber, specially developed in this study for this purpose (Fig. S9). All absorbance values were subtracted of the related blanks. Then, absorbance values of test samples (B. bacteriovorus co-cultures) were subtracted from the control values (E. coli without B. bacteriovorus) and plotted in graph against the logarithm of antibiotic concentrations. The resulting Δ curve is an indication of B. bacteriovorus growth. Data was expressed as percentage of growth and plotted in a graph of log(inhibitor) vs. response. The minimal inhibitory concentration (MIC) value was defined as the concentration of antibiotic that prevent B. bacteriovorus growth and were calculated by fitting B. bacteriovorus growth inhibition curves with a Gompertz modified equation[15] (using GraphPad Prism 5). […] Direct cell growth measurements of B. bacteriovorus upon prey bacteria can be estimated by reduction of the optical density at 600 nm (OD600) (i.e. the loss of culture turbidity by B. bacteriovorus-induced lysis of prey cells). In this study, we designed a 96-well based method for the determination of antibiotic MICs for B. bacteriovorus. B. bacteriovorus HD100 cells were added to an E. coli culture and the reduction of OD600 measured in absence and presence of different concentrations of antibiotics. Assays were conducted in a solution of Ca/HEPES buffer and the exhausted medium transferred with the E. coli overnight culture and the B. bacteriovorus dilution. Therefore, E. coli cells were in the stationary phase and their growth during the assays was negligible. […] MIC values are dependent on the initial PPR used in the assay, as standard MIC assays are dependent on the initial bacterial concentration. However, B. bacteriovorus numbers and therefore, the initial PPR can be estimated reliably only after the assay by plating in double layer agar plates. The relation between initial PPR and MIC values was then investigated by adding different numbers of B. bacteriovorus cells to the fixed number of E. coli prey cells in parallel replicated experiments (on different rows of the same plate containing replicated antibiotic serial dilutions). […]

E. coli BW25113 = tested on: T2, E. coli BW25113; assay: microbe, parasite or virus in culture; parameters: Broth dilution growth at OD600 in Ca/HEPES:YPSC, 29 °C, Gompertz-fit MIC; conditions: Escherichia coli, BW25113, 24 h; Ca/HEPES:YPSC, 29 °C, non-standard MIC
T2 construct: BW25113
Procedure: Serial antibiotic dilutions in 100 µL Ca/HEPES were made along the rows of 96-well plates including controls without antibiotic. E. coli BW25113 cells from an overnight culture were washed and re-suspended in Ca/HEPES buffer to a final OD600 of 0.024. Aliquots of 50 µL of this E. coli suspension and 50 µL of a fresh YPSC broth were added to the wells of these plates and the blank measured at 600 nm. Final OD600 measurements were carried out after an incubation of 24 hours at 29 °C under shaking conditions. Data is shown as percentage of growth and plotted in a graph against the logarithm of antibiotic concentration. MIC values were calculated by fitting data with a Gompertz modified equation[15] (using GraphPad Prism 5). […] Antibiotics characterized by a high B. bacteriovorus/E. coli MIC ratio, such as amikacin, kanamycin, gentamicin and aztreonam (Table 1), are of particular interest for a B. bacteriovorus based co-therapy against E. coli infections.

Compound	MIC (B. bacteriovorus HD100)	MIC (E. coli BW25113)
NCC[C@H](O)C(=O)N[C@@H]1C[C@H](N)[C@@H](O[C@H]2O[C@H](CN)[C@@H](O)[C@H](O)[C@H]2O)[C@H](O)[C@H]1O[C@H]1O[C@H](CO)[C@@H](O)[C@H](N)[C@H]1O [Amikacin]	0.7 ± 0.02 µg/mL (≈ 1.2 µM)	0.06 µg/mL (≈ 0.102 µM)
NC[C@H]1O[C@H](O[C@H]2[C@H](O)[C@@H](O[C@H]3O[C@H](CO)[C@@H](O)[C@H](N)[C@H]3O)[C@H](N)C[C@@H]2N)[C@H](O)[C@@H](O)[C@@H]1O [Kanamycin]	0.69 ± 0.06 µg/mL (≈ 1.42 µM)	0.081 µg/mL (≈ 0.167 µM)
CN[C@H](CC(C)C)C(=O)N[C@H]1C(=O)N[C@@H](CC(N)=O)C(=O)N[C@H]2C(=O)N[C@H]3C(=O)N[C@H](C(=O)N[C@H](C(=O)O)c4cc(O)cc(O)c4-c4cc3ccc4O)[C@H](O)c3ccc(c(Cl)c3)Oc3cc2cc(c3O[C@@H]2O[C@H](CO)[C@@H](O)[C@H](O)[C@H]2O[C@H]2C[C@](C)(N)[C@H](O)[C@H](C)O2)Oc2ccc(cc2Cl)[C@H]1O [Vancomycin]	16 ± 1 µg/mL (≈ 11 µM)	
C[C@H]1[C@H](NC(=O)/C(=N\OC(C)(C)C(=O)O)c2csc(N)n2)C(=O)N1S(=O)(=O)O [Aztreonam]	41 ± 4 µg/mL (≈ 94.2 µM)	5.7 µg/mL (≈ 13.1 µM)
O=C(O)c1cn(C2CC2)c2cc(N3CCNCC3)c(F)cc2c1=O [Ciprofloxacin]	0.31 ± 0.04 µg/mL (≈ 0.936 µM)	0.13 µg/mL (≈ 0.392 µM)
COc1cc(Cc2cnc(N)nc2N)cc(OC)c1OC [TMP, trimethoprim]	223 ± 24 µg/mL (≈ 768 µM)	
C[C@H]1COc2c(N3CCN(C)CC3)c(F)cc3c(=O)c(C(=O)O)cn1c23 [Levofloxacin]	0.23 ± 0.02 µg/mL (≈ 0.636 µM)	0.064 µg/mL (≈ 0.177 µM)
C[C@@H](O)[C@H]1C(=O)N2C(C(=O)O)=C(S[C@@H]3CN[C@H](C(=O)N(C)C)C3)[C@H](C)[C@H]12 [Meropenem]	0.42 ± 0.06 µg/mL (≈ 1.1 µM)	0.14 µg/mL (≈ 0.365 µM)
CN(C)c1cc(NC(=O)CNC(C)(C)C)c(O)c2c1C[C@H]1C[C@H]3[C@H](N(C)C)C(O)=C(C(N)=O)C(=O)[C@@]3(O)C(O)=C1C2=O [Tigecycline]	0.59 ± 0.01 µg/mL (≈ 1.01 µM)	2.3 µg/mL (≈ 3.93 µM)
CC(C)(O/N=C(\C(=O)N[C@@H]1C(=O)N2C(C(=O)[O-])=C(C[n+]3ccccc3)CS[C@H]12)c1csc(N)n1)C(=O)O [Ceftazidime]	7.8 ± 0.4 µg/mL (≈ 14.3 µM)	19 µg/mL (≈ 34.8 µM)
CNC(C)[C@@H]1CC[C@@H](N)[C@@H](O[C@H]2[C@H](O)[C@@H](O[C@H]3OC[C@](C)(O)[C@H](NC)[C@H]3O)[C@H](N)C[C@@H]2N)O1 (stereo partly shown) [Gentamicin]	0.06 µg/mL (≈ 0.126 µM)	0.0084 µg/mL (≈ 0.0176 µM)

Second part, the compound after the results:

MIC (B. bacteriovorus HD100)	MIC (E. coli BW25113)	Compound
0.51 ± 0.07 µg/mL (≈ 1.12 µM)	2 µg/mL (≈ 4.4 µM)	Cc1nnc(SCC2=C(C(=O)O)N3C(=O)[C@@H](NC(=O)Cn4cnnn4)[C@H]3SC2)s1 [Cefazolin]
3.4 ± 0.5 µg/mL (≈ 10.2 µM)	19 µg/mL (≈ 56.8 µM)	CC1(C)S[C@@H]2[C@H](NC(=O)Cc3ccccc3)C(=O)N2[C@H]1C(=O)O [Penicillin G]
2.5 ± 0.5 µg/mL (≈ 4.83 µM)	122 µg/mL (≈ 236 µM)	CCN1CCN(C(=O)N[C@@H](C(=O)N[C@@H]2C(=O)N3[C@@H]2SC(C)(C)[C@@H]3C(=O)O)c2ccccc2)C(=O)C1=O [Piperacillin]
1.3 ± 0.3 µg/mL (≈ 2.01 µM)	0.6 µg/mL (≈ 0.929 µM)	CCN1CCN(C(=O)N[C@@H](C(=O)N[C@@H]2C(=O)N3C(C(=O)O)=C(CSc4nnnn4C)CS[C@H]23)c2ccc(O)cc2)C(=O)C1=O [Cefoperazone]
1.7 ± 0.2 µg/mL (≈ 3.83 µM)	4.8 µg/mL (≈ 10.8 µM)	CN(C)[C@@H]1C(O)=C(C(N)=O)C(=O)[C@@]2(O)C(O)=C3C(=O)c4c(O)cccc4[C@@](C)(O)[C@H]3C[C@@H]12 [Tetracycline]
7.9 ± 0.9 µg/mL (≈ 19.4 µM)		CCC[C@@H]1C[C@@H](C(=O)N[C@@H]([C@H]2O[C@H](SC)[C@H](O)[C@@H](O)[C@H]2O)[C@@H](C)O)N(C)C1 [Lincomycin]
1.3 ± 0.2 µg/mL (≈ 3.72 µM)	5.4 µg/mL (≈ 15.5 µM)	CC1(C)S[C@@H]2[C@H](NC(=O)[C@H](N)c3ccccc3)C(=O)N2[C@H]1C(=O)O [Ampicillin]
18 ± 2 µg/mL (≈ 48.9 µM)	10 µg/mL (≈ 27.2 µM)	N[C@@H](C(=O)N[C@@H]1C(=O)N2C(C(=O)O)=C(Cl)CS[C@H]12)c1ccccc1 [Cefaclor]
0.16 µg/mL (≈ 0.495 µM)	10 µg/mL (≈ 30.9 µM)	O=C(N[C@H](CO)[C@H](O)c1ccc([N+](=O)[O-])cc1)C(Cl)Cl [Chloramphenicol]
